Seven molecules from ChEMBL document CHEMBL1140832, “Antimitotic quinoid triterpenes from Maytenus chuchuhuasca” (Bioorg Med Chem Lett, 2008) can be followed below.

As usually defined, the IC50 is the concentration needed to halve the response being measured. Higher therefore signals a need for much substance.

The nature of experiment [1]: Inhibition of tubulin polymerization at 100 uM.
Another experiment concerns RPMI-8226. Nature of the experiment: Growth inhibition of human RPMI8226 cells. It counts as functional, cell-based.
Experiment [2] in a line: Inhibition of tubulin polymerization.

Activity calls are given as the source filed them. The calls are words filed in the database; no cut-off is given here.

In the case of `COC(=O)[C@]1(C)CC[C@]2(C)CC[C@]3(C)C4=CC(=O)c5c(cc(O)c(O)c5C)[C@]4(C)CC[C@@]3(C)[C@@H]2C1`, in experiment [1], the result was inactive. Take `COc1c(O)cc2c(c1C)C(=O)C=C1[C@@]2(C)CC[C@@]2(C)[C@@H]3C[C@@H](C)C(=O)C[C@]3(C)CC[C@]12C`: the result in experiment [1] was inactive. With `CC1=C(O)C(=O)C=C2C1=CC=C1[C@@]2(C)CC[C@@]2(C)[C@@H]3C[C@](C)(C(=O)O)CC[C@]3(C)CC[C@]12C` [CELASTROL], the IC50 is 3 µM in the experiment on RPMI-8226 and 2 µM in experiment [2]. `COC(=O)[C@]1(C)CC[C@]2(C)CC[C@]3(C)C4=CC=C5C(=CC(=O)C(O)=C5C)[C@]4(C)CC[C@@]3(C)[C@@H]2C1` [PRISTIMERIN]: the figures for the IC50 (with RPMI-8226; in experiment [2]) were 16.6 µM and 8 µM, respectively. As for `CC1=C(O)C(=O)C=C2C1=CC=C1[C@@]2(C)CC[C@@]2(C)[C@@H]3C[C@@H](C)C(=O)[C@@H](O)[C@]3(C)CC[C@]12C` [TINGENIN B], the IC50 is 18.3 µM in the experiment with RPMI-8226 and 12 µM in experiment [2]. Turning to `CC1=C(O)C(=O)C=C2C1=CC=C1[C@@]2(C)CC[C@@]2(C)[C@@H]3C[C@@H](C)C(=O)C[C@]3(C)CC[C@]12C` [TINGENONE], the results for the IC50 (in the experiment on RPMI-8226; in experiment [2]) were 7 µM and 8 µM, respectively.

Take `CC[C@]1(O)C[C@@H]2CN(CCc3c([nH]c4ccccc34)[C@@](C(=O)OC)(c3cc4c(cc3OC)N(C)[C@H]3[C@@](O)(C(=O)OC)[C@H](OC(C)=O)[C@]5(CC)C=CCN6CC[C@]43[C@@H]65)C2)C1` [VINBLASTINE]: the values for the IC50 (in the experiment with RPMI-8226; in experiment [2]) were 0.028 µM and 1 µM, respectively.
